{"source": "patent US20180085386A1", "about": "“URIDINE MONOPHOSPHATE AND TRIPHOSPHATE DERIVATIVES, COMPOSITIONS AND METHODS OF USE” (Tufts University, priority 2016, published 2018)", "key": {"THP-1 cells": {"test_system": "THP-1 cells", "assay": "Cytokine release from human THP-1 cells (multiplex analysis of culture medium)", "type": "cell-based", "details": "FIG. 19", "description": "THP-1 cells, a human cell line derived from monocytes, were treated in vitro with vehicle, the P2Y6 receptor antagonist MRS 2578, or compound 5, singly or in combination. THP-1 cells were seeded in 24 well plates at a density of 4×10^5 cells/well in culture medium for 24 hours. Thereafter, vehicle, compound 5, or MRS 2578 (singly or in combination) were added to the cultures for 24 hours. Subsequently the culture medium was aspirated and subjected to multiplex cytokine analysis. Data are presented as means+/−sem. MRS 2578 has a molecular weight of about 472 and is also described using CAS number 711019-86-2."}, "PSAPP mice [1]": {"test_system": "PSAPP mice", "assay": "Contextual fear conditioning test (freezing)", "type": "in vivo, mouse", "details": "vs vehicle", "description": "In this study, the diphosphate derivative of compound 5 was injected intraperitoneally into 6 to 7-month-old PSAPP and WT mice daily at two different doses, i.e., 1 μg/kg or 1 mg/kg of the diphosphate derivative of compound 5 (in 1% DMSO/PBS) for 7 consecutive days. Consistent with the results observed following acute UDP or PSB0474 treatment, treatment with the diphosphate derivative of compound 5 increased total freezing percentage in the context test in PSAPP mice (FIG. 4). […] FIG. 4 depicts the results of experiments using the contextual fear conditioning test with PSAPP mice treated with vehicle control (black bar at center of graph). […]\nIn this study, treatment of PSAPP mice commenced when the mice were pre-symptomatic. […] Following treatment, mice were assessed in a fear conditioning task for memory formation. Subsequently, plaque burden in the mice was also evaluated. […]\nTreatment with compound 5 prevented impairments in contextual fear memory. […] Memory is assessed by the percent time that mice “freeze” 24 hours after a fear inducing electric shock. […]\nIn this study, treatment of PSAPP mice commenced when the mice were pre-symptomatic. […] Following treatment, mice were assessed for the following: concentration of circulating pro-inflammatory cytokines; amyloid beta load (e.g., plaque burden); and memory in a fear conditioning task for memory formation. […]"}, "PSAPP mice [2]": {"test_system": "PSAPP mice", "assay": "Plaque load in cortex and hippocampus by amyloid beta immunostaining", "type": "in vivo, mouse", "details": "10 μg/kg i.p. once per day for 7 days; PS1/APP mice 26 weeks; cortex; FIG. 6B"}}, "data": [{"smiles": "O=c1ccn([C@@H]2O[C@H](CO)C(O)C2O)c(=O)n1Cc1noc2ccccc12", "note": "(stereo in doubt) [compound 5]", "values": [{"measurement": "effect of compound 5 on release of IL-7", "setting": "THP-1 cells; co-treatment with MRS 2578", "value": "abrogated"}, {"measurement": "release of IL-7 into culture media", "setting": "THP-1 cells; compound 5 10 nM, 24 hours, vs vehicle", "value": "decreased"}, {"measurement": "freezing time in contextual fear memory test", "setting": "PSAPP mice [1]; 10 μg/kg i.p. daily for 100 days from ~3 months of age, Example 17, FIG. 8", "value": "statistically significant increase"}, {"measurement": "freezing time in contextual fear memory test", "setting": "PSAPP mice [1]; 10 μg/kg i.p. daily for 100 days from ~3 months, Example 19, FIG. 15(C)", "value": "statistically significant increase"}, {"measurement": "Aβ42 plaque burden", "setting": "PSAPP mice [2]", "value": "significantly reduced"}]}]}
